A word on the Ki: it is the equilibrium dissociation constant of an inhibitor or competing ligand from its target. Low readings indicate tighter binding, high ones weaker binding. A word on the pA2: it is the negative logarithm of the molar antagonist concentration that doubles the agonist concentration needed for the same response. The low end stands for a weaker antagonist, the high end for a more potent antagonist.

Assay [1] addresses T1, 5-hydroxytryptamine receptor 6 (Homo sapiens, UniProt P50406). Description: Binding affinity against human 5-hydroxytryptamine 6 receptor stably transfected to HEK 293 human embryonic kidney cells using [3H]-lysergic acid diethylamide as radioligand. It is filed as cell-based, HEK293.
Assay [2] has as its target T1, 5-hydroxytryptamine receptor 6.
The target in assay [3] is 5-hydroxytryptamine receptor 7 (Homo sapiens, UniProt P34969). Description: Compound was evaluated for its binding affinity for human 5-hydroxytryptamine 7 receptor.
The target of assay [4] is 5-hydroxytryptamine receptor 1E (Homo sapiens, UniProt P28566). Kind of assay: Compound was evaluated for its binding affinity for human 5-hydroxytryptamine 1E receptor.
The target in assay [5] is T2, 5-hydroxytryptamine receptor 2C (Rattus norvegicus, UniProt P08909).
T2 sequence (P08909 whole entry): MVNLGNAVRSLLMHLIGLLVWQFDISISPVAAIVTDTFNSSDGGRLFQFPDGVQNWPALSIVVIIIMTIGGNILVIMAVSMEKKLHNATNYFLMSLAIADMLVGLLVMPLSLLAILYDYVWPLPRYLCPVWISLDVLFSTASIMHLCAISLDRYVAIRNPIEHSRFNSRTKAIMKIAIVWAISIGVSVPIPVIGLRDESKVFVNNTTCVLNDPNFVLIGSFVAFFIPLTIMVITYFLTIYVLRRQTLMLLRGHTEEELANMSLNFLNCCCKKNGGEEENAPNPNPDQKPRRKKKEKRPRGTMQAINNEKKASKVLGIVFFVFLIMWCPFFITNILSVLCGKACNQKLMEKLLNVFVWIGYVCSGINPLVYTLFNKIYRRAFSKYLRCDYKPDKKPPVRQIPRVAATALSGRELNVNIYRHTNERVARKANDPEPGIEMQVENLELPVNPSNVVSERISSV
Description: Compound was evaluated for its binding affinity for rat 5-hydroxytryptamine 2C receptor.

Assay [6] can be described thus: Compound was evaluated for its binding affinity for human 5-hydroxytryptamine 3 receptor.
The target in assay [7] is 5-hydroxytryptamine receptor 2A (Rattus norvegicus, UniProt P14842). Description: Compound was evaluated for its binding affinity for rat 5-hydroxytryptamine 2A receptor.
The target of assay [8] is 5-hydroxytryptamine receptor 1B (Homo sapiens, UniProt P28222). Kind of assay: Compound was evaluated for its binding affinity for human 5-hydroxytryptamine 1B receptor.
Chain of 5-hydroxytryptamine receptor 1B (P28222 whole entry): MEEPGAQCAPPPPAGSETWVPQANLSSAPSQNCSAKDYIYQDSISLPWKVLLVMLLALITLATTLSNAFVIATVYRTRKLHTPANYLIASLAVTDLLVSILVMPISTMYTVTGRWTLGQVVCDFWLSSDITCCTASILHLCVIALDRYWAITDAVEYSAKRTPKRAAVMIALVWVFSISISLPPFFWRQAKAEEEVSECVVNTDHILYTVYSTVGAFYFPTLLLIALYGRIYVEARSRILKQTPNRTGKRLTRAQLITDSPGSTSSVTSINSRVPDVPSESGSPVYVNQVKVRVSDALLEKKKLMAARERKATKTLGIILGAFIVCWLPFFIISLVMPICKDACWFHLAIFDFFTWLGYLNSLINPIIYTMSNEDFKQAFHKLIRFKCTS

T1 sequence (P50406 whole entry): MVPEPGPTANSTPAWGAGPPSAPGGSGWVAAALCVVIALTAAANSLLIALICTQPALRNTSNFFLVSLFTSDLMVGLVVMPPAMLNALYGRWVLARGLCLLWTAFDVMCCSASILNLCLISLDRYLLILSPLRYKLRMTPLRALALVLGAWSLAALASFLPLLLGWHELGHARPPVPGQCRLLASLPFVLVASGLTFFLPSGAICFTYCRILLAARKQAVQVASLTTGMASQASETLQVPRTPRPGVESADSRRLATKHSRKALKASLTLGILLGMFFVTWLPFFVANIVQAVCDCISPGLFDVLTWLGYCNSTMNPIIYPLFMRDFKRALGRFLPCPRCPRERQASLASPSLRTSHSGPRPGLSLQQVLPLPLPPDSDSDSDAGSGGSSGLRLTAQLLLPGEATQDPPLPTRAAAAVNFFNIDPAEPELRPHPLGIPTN
Chain of 5-hydroxytryptamine receptor 1E (P28566 whole entry): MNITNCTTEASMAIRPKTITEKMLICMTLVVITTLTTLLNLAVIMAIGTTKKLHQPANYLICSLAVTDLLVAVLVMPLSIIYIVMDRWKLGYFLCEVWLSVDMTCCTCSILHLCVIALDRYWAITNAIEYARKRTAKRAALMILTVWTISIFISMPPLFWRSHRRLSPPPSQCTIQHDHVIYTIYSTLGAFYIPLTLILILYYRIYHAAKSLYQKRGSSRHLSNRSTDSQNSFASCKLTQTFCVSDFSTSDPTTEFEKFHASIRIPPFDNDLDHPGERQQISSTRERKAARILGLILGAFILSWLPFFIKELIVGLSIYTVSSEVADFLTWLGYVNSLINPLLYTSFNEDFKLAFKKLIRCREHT
Chain of 5-hydroxytryptamine receptor 2A (P14842 whole entry): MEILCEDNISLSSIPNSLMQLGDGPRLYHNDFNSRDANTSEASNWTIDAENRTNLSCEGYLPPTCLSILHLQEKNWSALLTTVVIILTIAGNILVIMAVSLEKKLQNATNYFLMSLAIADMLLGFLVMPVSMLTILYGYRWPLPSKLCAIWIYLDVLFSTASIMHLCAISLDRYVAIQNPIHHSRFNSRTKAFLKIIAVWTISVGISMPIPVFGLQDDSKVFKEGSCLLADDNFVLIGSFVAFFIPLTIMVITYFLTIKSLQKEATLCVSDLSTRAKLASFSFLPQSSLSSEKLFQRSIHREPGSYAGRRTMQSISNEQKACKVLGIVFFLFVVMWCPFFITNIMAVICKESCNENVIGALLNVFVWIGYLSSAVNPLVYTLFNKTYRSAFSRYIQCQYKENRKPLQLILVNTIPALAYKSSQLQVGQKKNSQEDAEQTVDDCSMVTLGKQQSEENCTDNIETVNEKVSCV
Chain of 5-hydroxytryptamine receptor 7 (P34969 whole entry): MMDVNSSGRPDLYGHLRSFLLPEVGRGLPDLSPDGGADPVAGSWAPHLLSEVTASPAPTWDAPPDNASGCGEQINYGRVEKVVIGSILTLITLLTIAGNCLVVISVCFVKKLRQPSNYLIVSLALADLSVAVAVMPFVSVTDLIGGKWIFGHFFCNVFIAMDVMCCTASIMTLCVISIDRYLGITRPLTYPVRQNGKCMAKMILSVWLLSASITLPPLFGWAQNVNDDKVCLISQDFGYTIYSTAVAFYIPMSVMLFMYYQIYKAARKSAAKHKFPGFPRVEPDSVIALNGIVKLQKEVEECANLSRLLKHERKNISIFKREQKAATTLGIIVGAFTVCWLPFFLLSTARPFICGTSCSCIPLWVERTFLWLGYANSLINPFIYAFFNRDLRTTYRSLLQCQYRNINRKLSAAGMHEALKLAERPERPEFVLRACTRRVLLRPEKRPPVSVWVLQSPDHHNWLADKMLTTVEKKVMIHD

In the case of `COc1ccc(S(=O)(=O)n2cc(CCN(C)C)c3cccc(OC)c32)cc1`, in assay [1], the affinity corresponds to a Ki of 93 nM. This counts as double-digit nanomolar.

Regarding `COc1ccc(OC)c(S(=O)(=O)n2cc(CCN(C)C)c3ccc(OC)cc32)c1`, the Ki in assay [1] was found to be 9.5 nM.

As to `COc1cccc2c(CCN(C)C)cn(S(=O)(=O)c3ccc4ccccc4c3)c12`, the inhibition constant (Ki) in assay [1] was 5 nM.

Take `COc1ccc(OC)c(S(=O)(=O)n2cc(CCN(C)C)c3c(OC)cccc32)c1`: the Ki in assay [1] is 7.4 nM. This Ki and that of the molecule before are within 1.5-fold of each other.

For the molecule `COc1ccc2c(c1)c(CCN(C)C)cn2S(=O)(=O)c1ccccc1`, the pA2 in assay [2] was determined as 8.88. The Ki is 600 nM in assay [3]; 4.22 µM in assay [4]; 23 nM in assay [5]; 2390 nM in assay [6]; 130 nM in assay [7]; 2.3 nM in assay [1]. Further, the Ki in assay [8] is 9.21 µM.

In turn, `COc1ccc2c(c1)c(CCN(C)C)cn2S(=O)(=O)c1ccc2ccccc2c1` had a Ki in assay [1] of 1.6 nM.

`COc1ccc2c(c1)c(CCN(C)C)cn2S(=O)(=O)c1cccc2ccccc12` returned a Ki in assay [1] of 0.9 nM.

In assay [1], `COc1ccc(S(=O)(=O)n2cc(CCN(C)C)c3cc(OC)ccc32)cc1` registered an inhibition constant (Ki) of 8 nM.

For the molecule `COc1ccc(OC)c(S(=O)(=O)n2cc(CCN(C)C)c3cc(OC)ccc32)c1`, the affinity in assay [1], expressed as Ki, was 1.3 nM.

The molecule `COc1ccc2c(c1)c(CCN(C)C)cn2S(=O)(=O)c1ccc(Cl)cc1` registered a Ki in assay [1] of 3.1 nM.

For `COc1cccc2c(CCN(C)C)cn(S(=O)(=O)c3ccc(Cl)cc3)c12`, the Ki in assay [1] is 45 nM.

In assay [1], `COc1ccc(OC)c(S(=O)(=O)n2cc(CCN(C)C)c3cccc(OC)c32)c1` gave a Ki of 183 nM.
